What was measured:
[1] = molecular target: T1, Recombinant full-length human IDO1 (Homo sapiens, UniProt P14902); assay: IDO1 enzymatic assay (NFK quantified by LCMS); format: biochemical; conditions: 2 nM enzyme, 5 μM L-tryptophan, 30 min pre-incubation, pH6.5; mean if measured multiple times; read-out: hIDO activity (IC50 in nM)
T1 construct: Recombinant full-length human IDO1 with a N-terminal hexahistidine tag; hexahistidine (N); made in house; host or cells: E. coli
Description: 1) Testing Compounds for IDO Inhibitory Activity in an IDO1 Enzymatic Assay:
Recombinant full-length human IDO1 with a N-terminal hexahistidine tag expressed in E. coli and purified to homogeneity is incubated at a final concentration of 2 nM in assay buffer consisting of 37.5 mM phosphate buffer at pH6.5 supplemented with 10 mM ascorbic acid, 0.45 μM methylene blue, 50 U/ml catalase, 0.01% BSA, and 0.01% Tween 20 (protocol modified from Seegers et al, JBS 2014). Example compounds are serially diluted in DMSO, further diluted in phosphate buffer, and added to the enzyme at final concentrations ranging from 10 μM to 0.5 nM. The final DMSO concentration is 0.6%. Following a pre-incubation of 30 minutes at RT, the reaction is started by the addition of L-tryptophan at a final concentration of 5 μM in assay buffer. After 30 minutes of incubation at RT, 3 μL of the 20 μl reaction mixture are transferred to a 384 deep well plate containing 25 μL of deionized water. 100 μl of 200 nM L-Tryptophan-(indole-d5) in cold 100% methanol are added followed by a 10 minutes centrifugation at 3220×g at 4° C. An additional 75 μL of deionized water are then added followed by a 10 minutes centrifugation at 3220×g at 4° C. The product of the reaction N′-Formylkynurenine (NFK) is quantified by LCMS and normalized to the L-Tryptophan-(indole-d5) signal. Samples with 0.6% DMSO (0% effect) and a TDO/IDO inhibitor (100% effect) are used as control samples to set the parameters for the non-linear regression necessary for the determination of the half-maximal inhibitory concentration (IC50) for each compound. For each compound concentration the percentage of activity compared to 0% and 100% effect is calculated as average±STDEV (each concentration measured in duplicate). IC50 values and curves are generated with XLfit software (IDBS) using Dose-Response One Site model 203 (four parameter logistic curve model). The calculated IC50 values may fluctuate depending on the daily assay performance. Fluctuations of this kind are known to those skilled in the art. When compounds are measured multiple times, mean values are given.

[2] = molecular target: T2, IDO1 in SKOV3 cells (Homo sapiens, UniProt P14902); assay: Cell-based IDO inhibitory activity in IFNγ-stimulated SKOV3 cells (NFK + kynurenine by LCMS); conditions: IFNγ 50 ng/ml, 200 uM L-tryptophan, 24 hours
T2 construct: SKOV3 cells (NCI, No. 0503405) which upregulate IDO1 after stimulation with IFNγ; host or cells: SKOV3 cells stimulated with IFNγ
T2 sequence (P14902 whole entry): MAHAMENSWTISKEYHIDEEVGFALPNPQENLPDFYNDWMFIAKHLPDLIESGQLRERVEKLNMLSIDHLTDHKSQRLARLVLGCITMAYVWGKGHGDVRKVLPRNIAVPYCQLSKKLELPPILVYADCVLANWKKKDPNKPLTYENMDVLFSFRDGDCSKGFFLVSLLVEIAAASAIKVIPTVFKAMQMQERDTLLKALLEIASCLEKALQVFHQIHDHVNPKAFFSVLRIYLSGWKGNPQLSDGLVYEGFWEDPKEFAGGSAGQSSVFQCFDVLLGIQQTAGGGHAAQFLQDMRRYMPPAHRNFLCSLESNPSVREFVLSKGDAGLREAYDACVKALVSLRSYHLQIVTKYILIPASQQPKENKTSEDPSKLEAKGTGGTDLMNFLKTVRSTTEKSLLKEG
Summary of the method: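 SKOV3 cells (4000/well, pre-cultured 24 h) were treated with compound (10 uM-40 nM) plus 200 uM L-tryptophan and 50 ng/ml IFNγ for 24 h at 37° C. N-formylkynurenine plus kynurenine in supernatant was measured by LCMS against a d5-tryptophan internal standard. IC50 was fitted against 0.2% DMSO and reference-inhibitor controls, in duplicate, with repeat measurements averaged.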

[3] = molecular target: T3, Recombinant human TDO comprising amino acids 19-407 (Homo sapiens, UniProt P48775); assay: TDO2 enzymatic assay (NFK quantified by LCMS); format: biochemical; conditions: 15 nM enzyme, 200 μM L-tryptophan, 30 min pre-incubation, pH7; mean if measured multiple times; read-out: hTDO activity (IC50 in nM)
T3 construct: human TDO comprising amino acids 19-407; hexahistidine (N); made in house; host or cells: E. coli
T3 sequence (P48775 19-406 limits assumed): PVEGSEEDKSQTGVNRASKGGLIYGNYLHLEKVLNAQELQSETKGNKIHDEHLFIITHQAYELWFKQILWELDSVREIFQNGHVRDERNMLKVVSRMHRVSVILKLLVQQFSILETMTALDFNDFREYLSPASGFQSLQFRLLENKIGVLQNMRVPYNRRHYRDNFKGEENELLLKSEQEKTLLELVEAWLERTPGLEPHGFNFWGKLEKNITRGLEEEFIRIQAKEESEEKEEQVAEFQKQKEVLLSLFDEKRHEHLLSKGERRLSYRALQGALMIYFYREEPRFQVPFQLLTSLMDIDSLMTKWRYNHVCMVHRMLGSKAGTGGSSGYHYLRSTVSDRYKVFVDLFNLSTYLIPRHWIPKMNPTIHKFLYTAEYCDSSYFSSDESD
Summary of the method: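 E. coli-expressed N-terminal His-tagged TDO (15 nM) in pH 7 phosphate buffer with ascorbate and catalase, preincubated 30 min at RT with compound (10 μM to 0.5 nM, 0.6% DMSO). Reaction started with 200 μM L-tryptophan for 30 min at RT; NFK measured by LCMS against deuterated internal standard, IC50 by four-parameter fit, duplicates.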

T1 sequence (P14902 whole entry): as the sequence (P14902 whole entry) above

Structure (SMILES)	IC50 [1] [nM]	IC50 [2] [nM]	IC50 [3] [nM]
COc1ccc(-n2cc([C@H](O)c3c(C4CC4)ncc4cncn34)nn2)cc1Cl [Example 11a, (R)-[1-(3-Chloro-4-methoxy-phenyl)-1H-[1,2,3]triazol-4-yl]-(6-cyclopropyl-imidazo[1,5-a]pyrazin-5-yl)-methanol]	8.17	23.7	> 10200
CN(C)c1ccc(-n2cc([C@H](O)c3c(C4CC4)ncc4cncn34)nn2)cc1 [Example 44, (R)-(6-Cyclopropyl-imidazo[1,5-a]pyrazin-5-yl)-[1-(4-dimethylamino-phenyl)-1H-[1,2,3]triazol-4-yl]-methanol]	14.5	377	> 10200
O[C@@H](c1cn(-c2ccccc2)nn1)c1c(Cl)ccc2cncn12 [Example 1a, (R)-(6-Chloro-imidazo[1,5-a]pyridin-5-yl)-(1-phenyl-1H-[1,2,3]triazol-4-yl)-methanol]	5.07	193	9110
CCc1c(C(O)c2c(Cl)ccc3cncn23)nnn1-c1ccc(OC)cc1 (racemic) [Example 37, rac-(6-Chloro-imidazo[1,5-a]pyridin-5-yl)-[5-ethyl-1-(4-methoxy-phenyl)-1H-[1,2,3]triazol-4-yl]-methanol]	5.28	39	6640
OC(c1cn(-c2ccc(OCC3(F)COC3)cc2)nn1)c1c(C2CC2)ccc2cncn12 (racemic) [Example 19, rac-(6-Cyclopropyl-imidazo[1,5-a]pyridin-5-yl)-{1-[4-(3-fluoro-oxetan-3-ylmethoxy)-phenyl]-1H-[1,2,3]triazol-4-yl}-methanol]	13.7	11.6	> 10200
CCc1ccc2cncn2c1C(O)c1cn(-c2cc(F)c(OC)cc2F)nn1 (racemic) [Example 35, rac-[1-(2,5-Difluoro-4-methoxy-phenyl)-1H-[1,2,3]triazol-4-yl]-(6-ethyl-imidazo[1,5-a]pyridin-5-yl)-methanol]	3.39	3.05	> 10200
Cc1ccc(-n2cc(C(O)c3c(C4CC4)ccc4cncn34)nn2)cc1 (racemic) [Example 5, rac-(6-Cyclopropyl-imidazo[1,5-a]pyridin-5-yl)-(1-p-tolyl-1H-[1,2,3]triazol-4-yl)-methanol]	4.83	53.7	> 10200
CCc1ccc2cncn2c1[C@@H](O)c1cn(-c2cc(F)c(OC)cc2F)nn1 [Example 35a, (R)-[1-(2,5-Difluoro-4-methoxy-phenyl)-1H-[1,2,3]triazol-4-yl]-(6-ethyl-imidazo[1,5-a]pyridin-5-yl)-methanol]	2.39	0.95	> 10200
COc1ccc(-n2cc(C(O)c3c(C4CC4)ccc4cncn34)nn2)cc1Cl (racemic) [Example 8, rac-[1-(3-Chloro-4-methoxy-phenyl)-1H-[1,2,3]triazol-4-yl]-(6-cyclopropyl-imidazo[1,5-a]pyridin-5-yl)-methanol]	7.41	8.8	> 10200
CCOc1ccc(-n2cc(C(O)c3c(C4CC4)ncc4cncn34)nn2)cn1 (racemic) [Example 13, rac-(6-Cyclopropyl-imidazo[1,5-a]pyrazin-5-yl)-[1-(6-ethoxy-pyridin-3-yl)-1H-[1,2,3]triazol-4-yl]-methanol]	27.2	326	> 10200

More lines, in order of falling IC50 [1], values ahead:

IC50 [1] [nM]	IC50 [2] [nM]	IC50 [3] [nM]	Structure (SMILES)
275	8830	8650	OC(c1ccc(-c2ccccc2)s1)c1c(Cl)ccc2cncn12 (racemic) [Ref4, rac-(6-Chloro-imidazo[1,5-a]pyridin-5-yl)-(5-phenyl-thiophen-2-yl)-methanol, reference compound]
33.2	140	> 10200	CC(C)(O)COc1ccc(-n2cc(C(O)c3c(C4CC4)ncc4cncn34)nn2)cc1 (racemic) [Example 18, rac-1-(4-{4-[(6-Cyclopropyl-imidazo[1,5-a]pyrazin-5-yl)-hydroxy-methyl]-[1,2,3]triazol-1-yl}-phenoxy)-2-methyl-propan-2-ol]
20.4	172	> 10200	COc1ccc(-n2cc(C(O)c3c(C4CC4)ncc4cncn34)nn2)cc1 (racemic) [Example 17, rac-(6-Cyclopropyl-imidazo[1,5-a]pyrazin-5-yl)-[1-(4-methoxy-phenyl)-1H-[1,2,3]triazol-4-yl]-methanol]
16.7	282	> 10200	O[C@@H](c1cn(-c2ccccc2)nn1)c1c(C2CC2)ncc2cncn12 [Example 3a, (R)-(6-Cyclopropyl-imidazo[1,5-a]pyrazin-5-yl)-(1-phenyl-1H-[1,2,3]triazol-4-yl)-methanol]
16.5	154	> 10200	O[C@@H](c1cn(-c2ccc(N3CCCC3)cc2)nn1)c1c(C2CC2)ncc2cncn12 [Example 40, (R)-(6-Cyclopropyl-imidazo[1,5-a]pyrazin-5-yl)-[1-(4-pyrrolidin-1-yl-phenyl)-1H-[1,2,3]triazol-4-yl]-methanol]
6.17	225	> 10200	Cc1ccc2cncn2c1C(O)c1cn(-c2ccccc2)nn1 (racemic) [Example 2, rac-(6-Methyl-imidazo[1,5-a]pyridin-5-yl)-(1-phenyl-1H-[1,2,3]triazol-4-yl)-methanol]
5.86	33	> 10200	COc1cc(F)c(-n2cc([C@H](O)c3c(C4CC4)ncc4cncn34)nn2)cc1Cl [Example 25, (R)-[1-(5-Chloro-2-fluoro-4-methoxy-phenyl)-1H-[1,2,3]triazol-4-yl]-(6-cyclopropyl-imidazo[1,5-a]pyrazin-5-yl)-methanol]
5.43	31.2	> 10200	CCOc1ccc(-n2cc(C(O)c3c(C4CC4)ccc4cncn34)nn2)cn1 (racemic) [Example 9, rac-(6-Cyclopropyl-imidazo[1,5-a]pyridin-5-yl)-[1-(6-ethoxy-pyridin-3-yl)-1H-[1,2,3]triazol-4-yl]-methanol]
5.05	34.6	> 10200	Oc1ccc(-n2cc(C(O)c3c(C4CC4)ccc4cncn34)nn2)cc1 (racemic) [Example 14, rac-4-{4-[(6-Cyclopropyl-imidazo[1,5-a]pyridin-5-yl)-hydroxy-methyl]-[1,2,3]triazol-1-yl}-phenol]
2.12	4.84	> 10200	Oc1ccc(-n2cc(C(O)c3c(C4CC4)ccc4cncn34)nn2)cc1Cl (single isomer, unassigned) [Example 7a]
1.84	10.7	2190	COc1ccc(-n2nnc([C@H](O)c3c(Cl)ccc4cncn34)c2C)cc1 [Example 20a, (R)-(6-Chloro-imidazo[1,5-a]pyridin-5-yl)-[1-(4-methoxy-phenyl)-5-methyl-1H-[1,2,3]triazol-4-yl]-methanol]
1.82	7.92	> 10200	CCc1ccc2cncn2c1[C@@H](O)c1cn(-c2ccc(OC)cc2)nn1 [Example 34a, (R)-(6-Ethyl-imidazo[1,5-a]pyridin-5-yl)-[1-(4-methoxy-phenyl)-1H-[1,2,3]triazol-4-yl]-methanol]
